Paper PMC4492759, “Pharmacological profiling of the hemodynamic effects of cannabinoid ligands: a combined in vitro and in vivo approach” (Pharmacology Research & Perspectives, 2015)

What was measured:
[1] = tested on: rat GPR55; test: [35S]-GTPγS binding, membranes of HEK293s cells transfected with rat GPR55; type: biochemical; conditions: GTPγS binding, GPR55 activation
Description: (§1) HEK293s cells were transiently transfected with cDNA encoding rat or mouse CB1 or GPR55 and membranes were prepared as previously described (Ryberg et al. [2007]). In short, agonist activities in [^35S]-GTPγS binding assays were determined by the addition of ligand at 30°C for 45 min in membrane buffer [50 mmol/L NaCl, 5 mmol/L MgCl2, 0.5 mmol/L EDTA, 25 mmol/L HEPES (all Sigma, Gillingham, Dorset, UK); pH 7.4] containing 0.05 μg μL^−1 of membrane protein with 0.01% BSA, 25 μmol/L guanosine 5′-diphosphate (GDP), 100 μmol/L dithiothreitol (DTT), and 0.53 nmol/L [^35S]GTPγS (PerkinElmer) in a final volume of 200 μL. Antagonist assays were performed similarly, with the addition of an EC80 concentration of CP55940 as a nonselective CB1/CB2 agonist in conjunction with the ligand to be tested. Nonspecific binding was determined in the presence of 20 μmol/L unlabeled GTPγS. The reaction was terminated by addition of ice-cold wash buffer (50 mmol/L Tris-HCl, 5 mmol/L MgCl2, 50 mmol/L NaCl; pH 7.4) followed by rapid filtration under vacuum through 96-well B-glass fiber filter plates (PerkinElmer, Waltham, Massachusetts, USA) using a Biomek FX (Beckman Coulter, Bromma, Sweden). The filter plates were dried (30 min at 50°C) before scintillation liquid (PerkinElmer) was added onto the filters and the bound radioactivity was determined using a scintillation counter (Wallac). Data were fitted with a four-parameter logistic fit using the equation y = A + (B − A)/1 + ((C/x)^D), where A is no activation, B is full activation, C is the EC50, and D is the Hill slope. All data were based on at least three independent experiments.

[2] = molecular target: T1, rat GPR55 (Rattus norvegicus, UniProt F1MAK4); test: as above; type: biochemical; conditions: agonist mode; mean ± SEM, at least three experiments; read-out: GPR55 EC50, Rat
T1 construct: expressed in transfected cells; host or cells: HEK293s, transient transfection; membranes prepared
T1 sequence (F1MAK4 1-319): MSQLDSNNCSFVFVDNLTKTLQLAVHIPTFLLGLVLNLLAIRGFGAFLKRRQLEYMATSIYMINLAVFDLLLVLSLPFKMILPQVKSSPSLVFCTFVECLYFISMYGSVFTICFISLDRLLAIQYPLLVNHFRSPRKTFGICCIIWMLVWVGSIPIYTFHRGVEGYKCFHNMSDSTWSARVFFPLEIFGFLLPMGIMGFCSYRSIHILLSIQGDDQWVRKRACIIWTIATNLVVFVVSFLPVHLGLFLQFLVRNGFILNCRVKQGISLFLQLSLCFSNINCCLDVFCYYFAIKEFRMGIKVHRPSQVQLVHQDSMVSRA
Description: as §1

[3] = tested on: conscious WT, CB1−/− and GPR55−/− mice; test: Blood pressure and heart rate responses in conscious mice (WT, CB1−/−, GPR55−/−); conditions: for HR bradycardic response - area above the curve / MABP depressor response - area above the curve: metoprolol pretreated
[4] = O-1602 5 mg kg−1, +CBD (5 mg kg−1)
[5] = O-1602 5 mg kg−1, column Control
[6] = O-1602 10 mg kg−1, +CBD (5 mg kg−1)
[7] = O-1602 10 mg kg−1, column Control
[8] = O-1602 15 mg kg−1, +CBD (5 mg kg−1)
[9] = O-1602 15 mg kg−1, column Control

C=C(C)[C@@H]1CCC(C)=C[C@H]1c1c(C)cc(O)cc1O [O-1602]
potency at GPR55 relative to that of ACEA [1]: approximately 5 times
EC50 [2]: 20 ± 3 nM
HR bradycardic response - area above the curve ([3]; O-1602 5 mg kg−1, +AM281): 55.3 ± 20.9 arbitrary units
MABP depressor response - area above the curve ([3]; O-1602 5 mg kg−1, +AM281): 64.6 ± 17.5 arbitrary units
HR bradycardic response - area above the curve ([3]; O-1602 5 mg kg−1, +CBD & AM281): 154.8 ± 61.7 arbitrary units
HR bradycardic response - area above the curve [3, 4]: 17.4 ± 11.7 arbitrary units
MABP depressor response - area above the curve [3, 4]: 99.6 ± 25.8 arbitrary units
MABP depressor response - area above the curve ([3]; O-1602 5 mg kg−1, +CBD and AM281): 73.3 ± 24.5 arbitrary units
HR bradycardic response - area above the curve [3, 5]: 41.1 ± 20.8 arbitrary units
MABP depressor response - area above the curve [3, 5]: 91.9 ± 38.2 arbitrary units
HR bradycardic response - area above the curve ([3]; O-1602 10 mg kg−1, +AM281): 130.5 ± 20.5 arbitrary units
MABP depressor response - area above the curve ([3]; O-1602 10 mg kg−1, +AM281): 95.2 ± 6.5 arbitrary units
HR bradycardic response - area above the curve ([3]; O-1602 10 mg kg−1, +CBD & AM281): 298.2 ± 111.7 arbitrary units
HR bradycardic response - area above the curve [3, 6]: 186.8 ± 42.1 arbitrary units
MABP depressor response - area above the curve [3, 6]: 73.5 ± 17.8 arbitrary units
MABP depressor response - area above the curve ([3]; O-1602 10 mg kg−1, +CBD and AM281): 114.6 ± 17.6 arbitrary units
HR bradycardic response - area above the curve [3, 7]: 48.7 ± 25.4 arbitrary units
MABP depressor response - area above the curve [3, 7]: 44.1 ± 9.6 arbitrary units
HR bradycardic response - area above the curve ([3]; O-1602 15 mg kg−1, +AM281): 183.1 ± 50.9 arbitrary units
MABP depressor response - area above the curve ([3]; O-1602 15 mg kg−1, +AM281): 101.5 ± 4.1 arbitrary units
HR bradycardic response - area above the curve ([3]; O-1602 15 mg kg−1, +CBD & AM281): 286.6 ± 105.4 arbitrary units
HR bradycardic response - area above the curve [3, 8]: 197.1 ± 17.1 arbitrary units
MABP depressor response - area above the curve [3, 8]: 148.9 ± 17.1 arbitrary units
MABP depressor response - area above the curve ([3]; O-1602 15 mg kg−1, +CBD and AM281): 119.7 ± 18.1 arbitrary units
HR bradycardic response - area above the curve [3, 9]: 95.3 ± 6.5 arbitrary units
MABP depressor response - area above the curve [3, 9]: 61.3 ± 10.9 arbitrary units
effect on MABP ([3]; O-1602, conscious CB1−/− mice): dose-dependent depressor response
effect on HR ([3]; O-1602 alone, highest dose tested, conscious WT mice): transient bradycardia
effect on MABP ([3]; O-1602 alone, conscious WT mice): no effect
depressor response ([3]; O-1602 in the presence of AM281 (10 mg kg−1), GPR55−/− mice): did not elicit a depressor response
